# From ChEMBL document CHEMBL1926501 (J Med Chem, 2011)
# What was measured:
# [1] = molecular target: T1, Amine oxidase [flavin-containing] B (Rattus norvegicus, UniProt P19643)
# T1 sequence (P19643 whole entry): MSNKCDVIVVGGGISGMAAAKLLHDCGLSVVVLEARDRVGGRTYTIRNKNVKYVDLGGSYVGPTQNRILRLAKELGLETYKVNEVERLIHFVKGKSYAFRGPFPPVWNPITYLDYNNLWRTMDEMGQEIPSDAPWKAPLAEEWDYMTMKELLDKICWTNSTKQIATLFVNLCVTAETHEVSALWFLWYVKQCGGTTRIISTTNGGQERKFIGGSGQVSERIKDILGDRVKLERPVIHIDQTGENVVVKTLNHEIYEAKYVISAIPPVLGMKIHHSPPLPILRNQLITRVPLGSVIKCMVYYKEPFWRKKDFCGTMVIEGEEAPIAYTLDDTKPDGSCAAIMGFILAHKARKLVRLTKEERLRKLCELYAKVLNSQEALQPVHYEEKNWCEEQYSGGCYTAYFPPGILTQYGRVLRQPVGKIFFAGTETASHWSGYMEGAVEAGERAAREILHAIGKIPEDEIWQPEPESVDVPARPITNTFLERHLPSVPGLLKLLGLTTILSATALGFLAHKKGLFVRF
# Description: Inhibition of rat liver mitochondrial MAO-B using [14C]-phenylethylamine after 30 mins by scintillation counting
# [2] = molecular target: T2, Amine oxidase [flavin-containing] A (Rattus norvegicus, UniProt P21396)
# T2 sequence (P21396 whole entry): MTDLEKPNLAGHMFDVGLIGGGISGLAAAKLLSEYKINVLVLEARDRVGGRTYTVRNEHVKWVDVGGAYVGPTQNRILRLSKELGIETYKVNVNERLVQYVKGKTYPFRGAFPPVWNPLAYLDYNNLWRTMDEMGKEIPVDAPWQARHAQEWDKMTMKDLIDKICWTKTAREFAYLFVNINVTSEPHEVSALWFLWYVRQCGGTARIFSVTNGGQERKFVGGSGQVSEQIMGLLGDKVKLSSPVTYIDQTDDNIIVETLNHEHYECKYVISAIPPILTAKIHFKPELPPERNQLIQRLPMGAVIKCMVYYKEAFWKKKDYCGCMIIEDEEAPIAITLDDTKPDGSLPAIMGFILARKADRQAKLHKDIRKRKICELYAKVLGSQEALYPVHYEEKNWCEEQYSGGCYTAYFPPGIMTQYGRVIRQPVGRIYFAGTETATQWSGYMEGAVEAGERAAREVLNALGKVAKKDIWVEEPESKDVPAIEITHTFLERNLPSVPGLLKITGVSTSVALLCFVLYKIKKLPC
# Description: Inhibition of rat liver mitochondrial MAO-A using [14C]-5-hydroxytryptamine after 30 mins by scintillation counting
# [3] = molecular target: T1, Amine oxidase [flavin-containing] B; experiment: Non-competitive inhibition of rat liver mitochondrial MAO-B using phenylethylamine as substrate by Line-Weaver Burk plot analysis
# [4] = molecular target: T2, Amine oxidase [flavin-containing] A; experiment: Irreversible inhibition of rat liver mitochondrial MAO-A using 5-hydroxytryptamine as substrate at 6 nM preincubated for 30 mins measured after three consecutive centrifugation; conditions: 0.006 µM
# [5] = molecular target: T2, Amine oxidase [flavin-containing] A; experiment: Time-dependent inhibition of rat liver mitochondrial MAO-A using 5-hydroxytryptamine at 6 nM by scintillation counting; conditions: 0.006 µM
# [6] = molecular target: T2, Amine oxidase [flavin-containing] A; experiment: Irreversible inhibition of rat liver mitochondrial MAO-A using 5-hydroxytryptamine as substrate at 6 nM preincubated for 30 mins measured after three consecutive washes with buffer; conditions: 0.006 µM
# [7] = molecular target: T1, Amine oxidase [flavin-containing] B; experiment: Irreversible inhibition of rat liver mitochondrial MAO-B using phenylethylamine as substrate assessed as substrate consumption at 100 nM measured up to 420 mins; conditions: 7 h, 0.1 µM
# [8] = molecular target: T2, Amine oxidase [flavin-containing] A; experiment: Irreversible inhibition of rat liver mitochondrial MAO-A using 5-hydroxytriptamine as substrate assessed as substrate consumption at 10 nM measured up to 420 mins; conditions: 7 h, 0.01 µM
# Cholinesterase [9] = molecular target: Cholinesterase (Homo sapiens, UniProt P06276); experiment: Inhibition of human serum BuchE using butyrylthiocholine iodide as substrate preincubated for 10 mins measured after 15 mins of substrate addition by Ellman's method
# [10] = molecular target: T2, Amine oxidase [flavin-containing] A; experiment: Irreversible inhibition of rat liver mitochondrial MAO-A using 5-hydroxytriptamine as substrate assessed as substrate consumption at 10 nM preincubated for 30 mins measured up to 420 mins; conditions: 7 h, 0.01 µM
# Acetylcholinesterase [11] = molecular target: T3, Acetylcholinesterase (Homo sapiens, UniProt P22303); conditions: 100 uM
# Description: Inhibition of human AChE-induced amyloid beta (1 to 40) aggregation at 100 uM measured every 10 mins for 10 hrs by thioflavin T-based fluorometric analysis
# Acetylcholinesterase [12] = molecular target: T3, Acetylcholinesterase; experiment: Inhibition of cerebral human recombinant AchE expressed in HEK293 cells using acetylthiocholine iodide as substrate preincubated for 10 mins measured after 15 mins of substrate addition by Ellman's method
# [13] = molecular target: T1, Amine oxidase [flavin-containing] B; experiment: Time-dependent inhibition of rat liver mitochondrial MAO-B using phenylethylamine at 45 nM; conditions: 0.045 µM
# [14] = molecular target: T1, Amine oxidase [flavin-containing] B; experiment: Reversible inhibition of rat liver mitochondrial MAO-B using phenylethylamine as substrate assessed as substrate consumption at 100 nM preincubated for 30 mins measured up to 420 mins; conditions: 7 h, 0.1 µM
# [15] = molecular target: T1, Amine oxidase [flavin-containing] B; experiment: Reversible inhibition of rat liver mitochondrial MAO-B using phenylethylamine assessed as recovered enzyme activity at 45 nM preincubated for 30 mins measured after three consecutive washes with buffer; set-up: scale not given: the % may be the effect or the level left; conditions: read-out: Activity
# Acetylcholinesterase [16] = molecular target: Acetylcholinesterase (Electrophorus electricus, UniProt O42275)
# Description: Inhibition of Electrophorus electricus AchE using acetylthiocholine iodide as substrate preincubated for 10 mins measured after 15 mins of substrate addition by Ellman's method
# Cholinesterase [17] = molecular target: Cholinesterase (Equus caballus, UniProt P81908)
# Sequence of Cholinesterase (Equus caballus, UniProt P81908) (P81908 whole entry): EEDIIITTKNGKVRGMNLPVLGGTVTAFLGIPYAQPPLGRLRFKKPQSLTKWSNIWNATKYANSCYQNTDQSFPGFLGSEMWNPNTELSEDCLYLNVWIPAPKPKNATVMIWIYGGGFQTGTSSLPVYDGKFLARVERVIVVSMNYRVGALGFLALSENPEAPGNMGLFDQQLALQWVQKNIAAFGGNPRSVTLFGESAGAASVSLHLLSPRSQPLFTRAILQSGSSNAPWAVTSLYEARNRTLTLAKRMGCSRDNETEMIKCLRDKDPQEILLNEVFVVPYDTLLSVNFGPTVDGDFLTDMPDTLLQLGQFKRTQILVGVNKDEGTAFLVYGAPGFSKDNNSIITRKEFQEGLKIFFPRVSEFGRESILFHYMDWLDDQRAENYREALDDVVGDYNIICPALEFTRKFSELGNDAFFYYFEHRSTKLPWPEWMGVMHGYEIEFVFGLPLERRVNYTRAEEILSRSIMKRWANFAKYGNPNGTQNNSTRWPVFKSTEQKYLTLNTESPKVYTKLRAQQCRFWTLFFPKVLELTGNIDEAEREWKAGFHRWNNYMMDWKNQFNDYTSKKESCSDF
# Description: Inhibition of equine serum BuchE using butyrylthiocholine iodide as substrate preincubated for 10 mins measured after 15 mins of substrate addition by Ellman's method
# Sequence of Acetylcholinesterase (Electrophorus electricus, UniProt O42275) (O42275 whole entry): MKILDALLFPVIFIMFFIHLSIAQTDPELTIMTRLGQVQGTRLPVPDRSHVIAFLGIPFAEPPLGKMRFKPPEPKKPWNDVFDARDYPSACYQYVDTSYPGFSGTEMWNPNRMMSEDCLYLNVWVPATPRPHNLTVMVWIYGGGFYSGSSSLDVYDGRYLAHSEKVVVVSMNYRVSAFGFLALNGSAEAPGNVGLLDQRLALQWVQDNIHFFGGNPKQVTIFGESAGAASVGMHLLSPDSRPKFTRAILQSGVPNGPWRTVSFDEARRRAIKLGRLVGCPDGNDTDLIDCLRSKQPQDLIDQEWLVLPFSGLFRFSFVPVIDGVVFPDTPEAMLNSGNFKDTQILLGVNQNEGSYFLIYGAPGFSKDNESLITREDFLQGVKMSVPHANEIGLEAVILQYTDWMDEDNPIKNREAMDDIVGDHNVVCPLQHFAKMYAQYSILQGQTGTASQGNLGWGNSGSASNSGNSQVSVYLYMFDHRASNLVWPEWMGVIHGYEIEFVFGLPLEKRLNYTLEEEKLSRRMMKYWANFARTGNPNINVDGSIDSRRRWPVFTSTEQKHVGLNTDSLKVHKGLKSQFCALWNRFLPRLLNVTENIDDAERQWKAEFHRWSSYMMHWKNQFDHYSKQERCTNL
# T3 sequence (P22303 whole entry): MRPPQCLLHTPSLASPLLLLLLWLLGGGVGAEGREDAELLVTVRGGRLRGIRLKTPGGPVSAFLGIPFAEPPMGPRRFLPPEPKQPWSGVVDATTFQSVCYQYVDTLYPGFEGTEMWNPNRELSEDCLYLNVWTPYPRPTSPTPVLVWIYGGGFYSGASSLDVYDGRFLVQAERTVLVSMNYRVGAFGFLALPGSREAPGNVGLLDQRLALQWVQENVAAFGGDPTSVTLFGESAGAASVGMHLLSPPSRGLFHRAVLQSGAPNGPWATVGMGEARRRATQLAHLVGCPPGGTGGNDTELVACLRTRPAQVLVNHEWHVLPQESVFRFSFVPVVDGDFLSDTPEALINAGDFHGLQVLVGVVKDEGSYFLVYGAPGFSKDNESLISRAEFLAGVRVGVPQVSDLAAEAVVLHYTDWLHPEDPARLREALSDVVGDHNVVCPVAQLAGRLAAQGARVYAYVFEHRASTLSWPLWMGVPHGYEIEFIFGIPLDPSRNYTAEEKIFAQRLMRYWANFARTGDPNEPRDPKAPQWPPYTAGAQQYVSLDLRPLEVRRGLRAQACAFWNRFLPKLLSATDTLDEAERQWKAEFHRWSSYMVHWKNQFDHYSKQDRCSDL
# Sequence of Cholinesterase (Homo sapiens, UniProt P06276) (P06276 whole entry): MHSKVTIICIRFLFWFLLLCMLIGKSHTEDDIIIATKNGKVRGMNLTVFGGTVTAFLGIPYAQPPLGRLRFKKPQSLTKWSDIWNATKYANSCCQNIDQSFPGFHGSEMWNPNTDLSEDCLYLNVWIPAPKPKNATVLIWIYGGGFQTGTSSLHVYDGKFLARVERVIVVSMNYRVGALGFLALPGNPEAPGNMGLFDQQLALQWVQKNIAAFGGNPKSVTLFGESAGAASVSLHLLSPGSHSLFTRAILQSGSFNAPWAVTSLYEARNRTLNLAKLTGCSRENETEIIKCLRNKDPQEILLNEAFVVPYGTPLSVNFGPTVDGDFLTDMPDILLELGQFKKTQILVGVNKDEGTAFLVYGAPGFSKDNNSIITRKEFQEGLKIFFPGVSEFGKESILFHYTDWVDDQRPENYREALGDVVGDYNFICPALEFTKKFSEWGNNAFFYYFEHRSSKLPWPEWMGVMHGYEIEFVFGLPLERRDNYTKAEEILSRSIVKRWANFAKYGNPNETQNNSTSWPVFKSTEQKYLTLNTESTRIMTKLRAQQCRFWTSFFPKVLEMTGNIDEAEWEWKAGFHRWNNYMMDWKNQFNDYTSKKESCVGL
smiles,measurement,setting,value
C#CCN(C)Cc1cc2cc(OCCCCC3CCN(Cc4ccccc4)CC3)ccc2n1C,IC50,[1],2.7 µM
same,IC50,[2],0.01 µM
C#CCN(C)Cc1cc2cc(OCCCC3CCN(Cc4ccccc4)CC3)ccc2n1C,Ki,[3],0.011 µM
same,inhibition (INH),[4],Active
same,TDI,[5],Active
same,inhibition (INH),[6],Active
same,inhibition (INH),[7],Active
same,inhibition (INH),[8],Active
same,IC50,Cholinesterase [9],1.7 µM
same,inhibition (INH),[10],Active
same,inhibition,Acetylcholinesterase [11],32.4%
same,IC50,Acetylcholinesterase [12],0.38 µM
same,TDI,[13],Active
same,inhibition (INH),[14],Active
same,activity at 0.045 µM,[15],80.5%
C#CCN(C)Cc1cc2cc(OCCCN3CCN(Cc4ccccc4)CC3)ccc2n1C,IC50,[1],1.6 µM
same,IC50,Acetylcholinesterase [16],> 100 µM
same,IC50,[2],0.031 µM
C#CCN(C)Cc1cc2cc(OCCCN3CCC(Cc4ccccc4)CC3)ccc2n1C,IC50,[1],11 µM
C#CCN(C)Cc1cc2cc(OCCN3CCC(Cc4ccccc4)CC3)ccc2n1C,IC50,[1],1.4 µM
same,IC50,Acetylcholinesterase [16],> 100 µM
same,IC50,[2],0.14 µM
C#CCN(C)Cc1cc2cc(OCc3ccccc3)ccc2n1C,IC50,Cholinesterase [17],> 100 µM
same,IC50,Acetylcholinesterase [16],> 100 µM
